Where two headings read alike, the source gives them in different places.
What was measured:
stomach of rats = test: Activity in vitro in the stomach of rats; details: rat stomach
uterus of rats = test: Rat uterus test in vitro (oestrogenized rat uteri)
Description: The rat uterus test consisted of a 10 ml thermostatic bath held at 29° C., in which oestrogenized rat uteri under 0.5 g traction were carboxygenated in a Dejalon saline solution. The preparation was left to stabilize for 30 minutes before the compounds and the standard were tested. Response was measured using a isotonic frontal lever, long enough to amplify the response 4.5 times.

ileum of guinea-pigs = test: Guinea pig ileum test in vitro
Description: The guinea pig ileum test consisted of a 10 ml thermostatic bath held at 35° C., containing the ileum of a male guinea pig, under 0.5 g traction, carboxygenated in a Tyrode solution; this was left for 30 minutes to stabilize before the compounds were tested. The response was recorded using a isotonic frontal lever, long enough to amplify the response 4.5 times.

[1] = test system: stress-induced gastric ulcers; test: Inhibition of stress-induced gastric ulcers in rats (Takagi-Okabe method); assay type: in vivo, rat; details: anti-ulcer; for ED50: Rattus norvegicus, read-out: ED50 (Fiducial Limits For P=0.05); for Potency Ratio (Fiducial Limits For P=0.05): PGE2 = 1 (conventional value)
Text: (§1) Moreover, the compounds of the present invention are endowed with an excellent anti-ulcer activity as well as with a strong gastric anti-secretory effect, as shown by the following Tables: where the conventional value of 1 is given to the anti-ulcer and anti-secretory activity of PGE2, and where the compounds of the invention are compared also with 13,14-dehydro-PGE2, 16S-methyl-PGE2 and 16(S,R)-methyl-13,14-dehydro-PGE2.
INHIBITION OF STRESS-INDUCED GASTRIC ULCERS IN RATS (*)
(*) The ulcers are induced according to the method of Takagi-Okabe (K.
Takagi et al., Jap. J. Pharmacol., 18, 9 (1968)

gastric secretion = test: Antisecretory activity in rats (Shay method); assay type: in vivo, rat; details: subcutaneously; for ED50: Rattus norvegicus, sc, read-out: ED50 (Fiducial Limits For P = 0.05); for Potency Ratio (Fiducial Limits For P=0.05): PGE2 = 1 (conventional value)
Text: as §1
ANTISECRETORY ACTIVITY IN RATS (*)
(*) The antisecretory activity was studied according to H. Shay et al.,

[2] = test system: bronchospasm in guinea-pigs; test: Anti-bronchospastic (anti-asthmatic) activity in guinea-pigs (histamine- and anaphylactic shock-induced bronchospasm); design: species or system guinea pig; details: in vivo and in vitro in guinea-pigs; for anti-bronchospastic activity: compared with natural PGE2; for anti-bronchospastic activity relative to natural PGE2: histamine- and anaphylactic shock-induced
Description: Four hours later, the same animals were treated with a spray of the test compounds at different solutions in saline, and with a spray of standard PGE2 solution. They were then given another histamine spray (0.2%) and again, the times taken for bronchospasm to appear were noted.

| Compound | activity in vitro in the stomach of rats (stomach of rats) | spasmogenic activity (uterus of rats) | activity in vitro in the ileum of guinea-pigs (ileum of guinea-pigs) | ED50 ([1]; po, os) | ED50 ([1]; sc, subcutaneously) | Potency Ratio (Fiducial Limits For P=0.05) ([1]; os) | Potency Ratio (Fiducial Limits For P=0.05) ([1]; subcutaneously) | ED50 (gastric secretion) | Potency Ratio (Fiducial Limits For P=0.05) (gastric secretion) | anti-bronchospastic activity [2] | anti-bronchospastic activity relative to natural PGE2 [2] |
| --- | --- | --- | --- | --- | --- | --- | --- | --- | --- | --- | --- |
| CCCC[C@H](C)[C@H](O)C#C[C@@H]1[C@H](O)CC(=O)[C@H]1C/C=C\CCCC(=O)O (single isomer, unassigned) [16s-methyl-5c-9-oxo-11α,15S-trihydroxy-8,12-diiso-prost-5-en-13-ynoicacid] | practically devoid of any activity | excellent spasmogenic activity | practically devoid of any activity | – | – | – | – | – | – | – | – |
| CCCCC[C@H](O)C#C[C@H]1[C@H](O)CC(=O)[C@@H]1C/C=C\CCCC(=O)O [13,14-dehydro-PGE2, reference compound] | – | – | – | 0.063 mg/kg | 0.043 mg/kg | 9.3(4.5-19.0) | 4.9(2.4-9.6) | 0.055 mg/kg | 2.6 (1.4-4.5) | – | – |
| CCCCC(C)[C@H](O)C#C[C@H]1[C@H](O)CC(=O)[C@@H]1C/C=C\CCCC(=O)O (stereo partly drawn) [16(S,R)-methyl-13,14-dehydro-PGE2, reference compound] | – | – | – | 0.0202 mg/kg | 0.00341 mg/kg | 39.8(17.1-102.1) | 30.8(20.4-44.2) | 0.0068 mg/kg | 28.2 (18.1-41.6) | – | – |
| CCCC[C@@H](C)[C@@H](O)C#C[C@H]1[C@H](O)CC(=O)[C@@H]1C/C=C\CCCC(=O)O [16R-methyl-13,14-dehydro-15-epi-PGE2, 16r-methyl-5c-9-oxo-11α,15R-dihydroxy-prost-5-en-13-ynoic acid] | – | – | – | 0.141 mg/kg | 0.0087 mg/kg | 7.3(3.1-16.9) | 7.4(4.8-11.1) | 0.0328 mg/kg | 3.8 (2.7-5.5) | – | – |
| CCCC[C@@H](C)[C@H](O)C#C[C@H]1[C@H](O)CC(=O)[C@@H]1C/C=C\CCCC(=O)O [16R-methyl-13,14-dehydro-PGE2, 16r-methyl-5c-9-oxo-11α,15S-dihydroxy-prost-5-en-13-ynoic acid] | – | – | – | 0.0098 mg/kg | 0.0015 mg/kg | 105.6(46.6-282.6) | 43.1(28.4-64.6) | 0.0026 mg/kg | 48.3 (33.5-71.6) | very good anti-bronchospastic activity | four to six |
| CCCC[C@H](C)[C@@H](O)C#C[C@H]1[C@H](O)CC(=O)[C@@H]1C/C=C\CCCC(=O)O [16S-methyl-13,14-dehydro-15-epi-PGE2, 16s-methyl-5c-9-oxo-11α,15R-dihydroxy-prost-5-en-13-ynoic acid] | – | – | – | 0.22 mg/kg | 0.0911 mg/kg | 3.8(1.75-8.4) | 2.9(1.9-4.5) | – | – | – | – |
| CCCC[C@H](C)[C@H](O)C#C[C@H]1[C@H](O)CC(=O)[C@@H]1C/C=C\CCCC(=O)O [16S-methyl-13,14-dehydro-PGE2, 16S-methyl-5c-9-oxo-11α,15S-dihydroxy-prost-5-en-13-ynoic acid] | – | – | – | 0.015 mg/kg | 0.0009 mg/kg | 42.8(18.8-101.7) | 69.8(46.4-105.2) | 0.0042 mg/kg | 35.7 (20.8-68.9) | very good anti-bronchospastic activity | four to six |
| CCCC[C@H](C)[C@H](O)/C=C/[C@H]1[C@H](O)CC(=O)[C@@H]1C/C=C\CCCC(=O)O [16S-methyl-PGE2, reference compound] | – | – | – | 0.0242 mg/kg | 0.0177 mg/kg | 39.0(18.9-80.3) | 12.8(9.0-17.9) | 0.0112 mg/kg | 13.5 (7.9-23.7) | – | – |
| CCCCC[C@H](O)/C=C/[C@H]1[C@H](O)CC(=O)[C@@H]1C/C=C\CCCC(=O)O [PGE2, reference compound] | – | – | – | 0.717 mg/kg | 0.119 mg/kg | – | – | 0.155 mg/kg | – | – | – |
